Source: paper PMC6941952, “A homogeneous bioluminescent immunoassay to probe cellular signaling pathway regulation” (Communications Biology, 2020)
Where “and” joins values, the source holds several entries; their conditions need not be identical. Identical values can stand only once. Blank lines part the entries; values can stand above or below the molecule they belong to.

System: STAT3 Phospho-Tyr705
Assay: NanoBiT pSTAT3 cell-based immunoassay in A431 cells
Parameters: species or system human
Details: for P-STAT3 (% compared to no inhibitor) Average / P-STAT3 (% compared to no inhibitor) / Raw data P-STAT3 / Subtract reagent background P-STAT3 / Average P-STAT3 (% compared to no inhibitor): IL-6 10 ng/ml; for P-STAT3 (% compared to no inhibitor): replicate
Protocol: Prior to NanoBiT Cell-Based Immunoassay, 50,000 cells were seeded in 160 µl of complete growth media per well of a 96-well plate and incubated overnight. […] If necessary, the cell culture media were replaced with serum-free media after the cells were stably adherent on the plate and incubated overnight. To treat cells with activators or inhibitors, medium was changed to 30 µl of medium containing inhibitors. If activation of a specific pathway is needed, the cells were stimulated with 10 µl of medium containing activators. To lyse the cells, 10 µl of lysis buffer containing 0.1% digitonin diluted in 1X immunoassay buffer with protease and phosphatase inhibitors was added and the plates were mixed vigorously for 20 min. Then, 50 µl of an antibody mix containing two primary antibodies against the target protein and NanoBiT detecting antibodies (0.3 µl each per well), diluted in 1X immunoassay buffer was added to the lysates. The plates were incubated at 23 °C for 90 min, followed by the addition of 25 µl of Nano-Glo® reagent consisting of Nano-Glo® Luciferase Assay Substrate mixed with 1X immunoassay buffer. Luminescence was measured using a plate-reading luminometer.
Single dose or dose response inhibitor treatments were performed prior to activation of the pathways as follows. For IκBα, the cells were treated in 30 µl medium with IKK16 or MG132 for 60 min before the addition of 10 µl of DMEM containing appropriate concentration of TNFα. To measure phosphorylation of AKT or STAT3, the corresponding NanoBiT immunoassays were developed with MCF-7 or A431 cells, respectively, according the same scheme used to develop the IκBα assay using the primary antibodies for AKT and STAT3 described in the reagents section. […] Treatment with LY294002 was performed in 30 µl medium and cells were incubated for 60 min before the addition of 1 µM Insulin. To measure STAT3 phosphorylation, A431 cells were incubated overnight in DMEM medium without serum. […] After addition of the stimulators, the cells were incubated for additional times as follows. IκBα phosphorylation and degradation analyses required both time courses and single time points as described in figures. […] The NanoBiT immunoassay protocol was followed as described above.
All 96-well assay plates were read using a GloMax® 96 Microplate Luminometer from Promega. The instrument was set to 0.5 s integration time. In order to obtain net change of signal, the reagent background values (signal from the well containing all reagent except primary antibodies) were subtracted from the sample values. To plot and analyze the data, Microsoft Excel and GraphPad Prism® Software were used. IC50 values were determined by using a nonlinear regression fit to a sigmoidal dose response (variable slope).

[1] = A431 cells, pretreated 1 h, IL-6 10 ng per ml 30 min
[2] = Actemra 7.62939e-5 ug/ml, A431, Fig 6e
[3] = Actemra 0.000305176 ug/ml, A431, Fig 6e
[4] = Actemra 0.0012207 ug/ml, A431, Fig 6e
[5] = Actemra 0.00488281 ug/ml, A431, Fig 6e
[6] = Actemra 0.0195312 ug/ml, A431, Fig 6e
[7] = Actemra 0.078125 ug/ml, A431, Fig 6e
[8] = Actemra 0.3125 ug/ml, A431, Fig 6e

Molecule: N#CC[C@H](C1CCCC1)n1cc(-c2ncnc3[nH]ccc23)cn1 [Ruxolitinib]
IL-6-induced increase in STAT3 phosphorylation (A431 cells, 1 µM 1 h, IL-6 10 ng per ml 30 min): suppressed
P-STAT3 (% compared to no inhibitor) Average (inhibitor 0.0190735 nM): 95.1%
P-STAT3 (% compared to no inhibitor) Average (inhibitor 0.038147 nM): 97.5%
P-STAT3 (% compared to no inhibitor) Average (inhibitor 0.0762939 nM): 97.0%
P-STAT3 (% compared to no inhibitor) Average (inhibitor 0.152588 nM): 107.8%
P-STAT3 (% compared to no inhibitor) Average (inhibitor 0.305176 nM): 102.4%
P-STAT3 (% compared to no inhibitor) Average (inhibitor 0.610352 nM): 97.6%
P-STAT3 (% compared to no inhibitor) Average (inhibitor 1.2207 nM): 97.9%
P-STAT3 (% compared to no inhibitor) Average (inhibitor 2.44141 nM): 96.4%
P-STAT3 (% compared to no inhibitor) Average (inhibitor 4.88281 nM): 89.5%
P-STAT3 (% compared to no inhibitor) Average (inhibitor 9.76562 nM): 75.7%
P-STAT3 (% compared to no inhibitor) Average (inhibitor 19.5312 nM): 80.7%
P-STAT3 (% compared to no inhibitor) Average (inhibitor 39.0625 nM): 62.0%
P-STAT3 (% compared to no inhibitor) Average (inhibitor 78.125 nM): 39.8%
P-STAT3 (% compared to no inhibitor) Average (inhibitor 156.25 nM): 26.0%
P-STAT3 (% compared to no inhibitor) Average (inhibitor 312.5 nM): 16.9%
P-STAT3 (% compared to no inhibitor) Average (inhibitor 625 nM): 16.7%
P-STAT3 (% compared to no inhibitor) Average (inhibitor 2500 nM): 13.8%
P-STAT3 (% compared to no inhibitor) Average (inhibitor 5000 nM): 15.3%
P-STAT3 (% compared to no inhibitor) Average (inhibitor 10000 nM): 10.3%
P-STAT3 (% compared to no inhibitor) Average (inhibitor […]): 12.9%
P-STAT3 (% compared to no inhibitor) (inhibitor 0.0190735 nM): 96.2% and 96.8% and 92.2%
P-STAT3 (% compared to no inhibitor) (inhibitor 0.038147 nM): 95.4% and 106.7% and 90.5%
P-STAT3 (% compared to no inhibitor) (inhibitor 0.0762939 nM): 96.2% and 100.5% and 94.3%
P-STAT3 (% compared to no inhibitor) (inhibitor 0.152588 nM): 95.8% and 119.8% and 107.8%
P-STAT3 (% compared to no inhibitor) (inhibitor 0.305176 nM): 98.2% and 103.8% and 105.3%
P-STAT3 (% compared to no inhibitor) (inhibitor 0.610352 nM): 90.4% and 95.8% and 106.7%
P-STAT3 (% compared to no inhibitor) (inhibitor 1.2207 nM): 97.3% and 105.4% and 90.9%
P-STAT3 (% compared to no inhibitor) (inhibitor 2.44141 nM): 104.8% and 99.5% and 84.9%
P-STAT3 (% compared to no inhibitor) (inhibitor 4.88281 nM): 81.2% and 88.5% and 98.7%
P-STAT3 (% compared to no inhibitor) (inhibitor 9.76562 nM): 52.6% and 91.9% and 82.5%
P-STAT3 (% compared to no inhibitor) (inhibitor 19.5312 nM): 89.5% and 78.3% and 74.3%
P-STAT3 (% compared to no inhibitor) (inhibitor 39.0625 nM): 59.3% and 71.3% and 55.5%
P-STAT3 (% compared to no inhibitor) (inhibitor 78.125 nM): 39.9% and 42.8% and 36.6%
P-STAT3 (% compared to no inhibitor) (inhibitor 156.25 nM): 30.4% and 24.5% and 23.1%
P-STAT3 (% compared to no inhibitor) (inhibitor 312.5 nM): 16.4% and 18.5% and 15.8%
P-STAT3 (% compared to no inhibitor) (inhibitor 625 nM): 19.9% and 15.7% and 14.5%
P-STAT3 (% compared to no inhibitor) (inhibitor 2500 nM): 12.6% and 13.9% and 14.8%
P-STAT3 (% compared to no inhibitor) (inhibitor 5000 nM): 13.4% and 17.3% and 15.2%
P-STAT3 (% compared to no inhibitor) (inhibitor 10000 nM): 6.2% and 9.4% and 15.3%

IC50, inhibition of Phospho-STAT3 [1]: 0.16 µg/mL
Molecule: Tocilizumab: humanized monoclonal antibody against the IL-6 receptor, approved immunosuppressive drug
STAT3 phosphorylation / JAK2-STAT3 pathway activation, dose response [1]: inhibited
Raw data P-STAT3 [2]: 317500 and 271600 and 267300
Subtract reagent background P-STAT3 [2]: 173175 and 168875 and 219075
P-STAT3 (% compared to no inhibitor) [2]: 117.6%
Raw data P-STAT3 [3]: 341900 and 251000 and 260600
Subtract reagent background P-STAT3 [3]: 155645 and 165245 and 246545
P-STAT3 (% compared to no inhibitor) [3]: 91.7% and 120.7%
Raw data P-STAT3 [4]: 299200 and 250300 and 276700
Subtract reagent background P-STAT3 [4]: 153990 and 180390 and 202890
Average P-STAT3 (% compared to no inhibitor) [5]: 74.6%
Raw data P-STAT3 [5]: 245000 and 216200 and 217700
Subtract reagent background P-STAT3 [5]: 121185 and 122685 and 149985
P-STAT3 (% compared to no inhibitor) [5]: 82.3% and 68.1% and 73.4%
Average P-STAT3 (% compared to no inhibitor) [6]: 41.8%
Raw data P-STAT3 [6]: 170000 and 159800 and 165700
Subtract reagent background P-STAT3 [6]: 67955 and 73855 and 78155
P-STAT3 (% compared to no inhibitor) [6]: 46.2% and 41.0% and 38.2%
Average P-STAT3 (% compared to no inhibitor) [7]: 19.4%
Raw data P-STAT3 [7]: 138700 and 129600 and 119000
Subtract reagent background P-STAT3 [7]: 34580 and 23980 and 43680
P-STAT3 (% compared to no inhibitor) [7]: 23.5% and 13.3% and 21.4%
Average P-STAT3 (% compared to no inhibitor) [8]: 9.3%
Raw data P-STAT3 [8]: 116800 and 110300 and 113700
Subtract reagent background P-STAT3 [8]: 13270 and 16670 and 19770
P-STAT3 (% compared to no inhibitor) [8]: 9.0% and 9.3% and 9.7%
Average P-STAT3 (% compared to no inhibitor) (Actemra 5 ug/ml, A431, Fig 6e): 7.9%
Raw data P-STAT3 (Actemra 5 ug/ml, A431, Fig 6e): 110700 and 107600 and 97720
P-STAT3 (% compared to no inhibitor) (Actemra 5 ug/ml, A431, Fig 6e): 10.8% and 3.4% and 9.3%
Average P-STAT3 (% compared to no inhibitor) (Actemra 20 ug/ml, A431, Fig 6e): 7.7%
Raw data P-STAT3 (Actemra 20 ug/ml, A431, Fig 6e): 106200 and 97590
P-STAT3 (% compared to no inhibitor) (Actemra 20 ug/ml, A431, Fig 6e): 11.0% and 4.2% and 7.9%
Average P-STAT3 (% compared to no inhibitor) (Actemra […], A431, Fig 6e): 7.7%
